According to patent US20150105252A1, “SUBSTITUTED PYRAZOLES AS HERBICIDES” (E I DU PONT DE NEMOURS AND COMPANY, priority 2013, published 2015):

Key:
[1] = system: barnyardgrass; experiment: Test A preemergence; format: in vivo, Echinochloa crus-galli; conditions: 0 to 100 scale
In short: (§1)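 Visual injury rating, 0–100 (0 no effect, 100 complete control), vs untreated controls ~10 days after treatment in greenhouse. Pre: directed soil spray on seeded loam/sand. Post: 2–10 cm plants, 1–2 leaf stage. Formulation: non-phytotoxic solvent mix + surfactant.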

[2] = system: crabgrass, large; experiment: Test A preemergence; format: in vivo, Digitaria sanguinalis; conditions: 0 to 100 scale
In short: as §1

[3] = system: foxtail, giant; experiment: Test A preemergence; format: in vivo, Setaria faberii; conditions: 0 to 100 scale
In short: as §1

[4] = system: morningglory; experiment: Test A preemergence; format: in vivo, Ipomoea spp.; conditions: 0 to 100 scale
In short: as §1

[5] = system: pigweed; experiment: Test A preemergence; format: in vivo, Amaranthus retroflexus; conditions: 0 to 100 scale
In short: as §1

[6] = system: velvetleaf; experiment: Test A preemergence; format: in vivo, Abutilon theophrasti; conditions: 0 to 100 scale
In short: as §1

[7] = system: wheat; experiment: Test A preemergence; format: in vivo, Triticum aestivum; conditions: preemergence, 125 g ai/ha; visual injury, 0 to 100 scale, approx. 10 days
In short: as §1

[8] = system: corn; experiment: Test A preemergence; format: in vivo, Zea mays; conditions: 0 to 100 scale
In short: as §1

[9] = system: barnyardgrass; experiment: Test A postemergence; format: in vivo, Echinochloa crus-galli; conditions: Postemergence
In short: as §1

[10] = system: crabgrass, large; experiment: Test A postemergence; format: in vivo, Digitaria sanguinalis
In short: as §1

[11] = system: foxtail, giant; experiment: Test A postemergence; format: in vivo, Setaria faberii
In short: as §1

[12] = system: morningglory; experiment: Test A postemergence; format: in vivo, Ipomoea spp.
In short: as §1

[13] = system: pigweed; experiment: Test A postemergence; format: in vivo, Amaranthus retroflexus
In short: as §1

[14] = system: velvetleaf; experiment: Test A postemergence; format: in vivo, Abutilon theophrasti
In short: as §1

[15] = system: wheat; experiment: Test A postemergence; format: in vivo, Triticum aestivum
In short: as §1

[16] = system: corn; experiment: Test A postemergence; format: in vivo, Zea mays
In short: as §1

[17] = system: rice; experiment: Test C flooded paddy test; format: in vivo, Oryza sativa; conditions: Flood
Description: (§2) At time of treatment, test pots were flooded to 3 cm above the soil surface, treated by application of test compounds directly to the paddy water, and then maintained at that water depth for the duration of the test. Treated plants and controls were maintained in a greenhouse for 13 to 15 days, after which time all species were compared to controls and visually evaluated. […] A dash (-) response means no test result.

[18] = system: sedge, umbrella; experiment: Test C flooded paddy test; format: in vivo, Cyperus difformis; conditions: Flood
Description: as §2

[19] = system: ducksalad; experiment: Test C flooded paddy test; format: in vivo, Heteranthera limosa; conditions: Flood
Description: as §2

[20] = system: barnyardgrass; experiment: Test C flooded paddy test; format: in vivo, Echinochloa crus-galli; conditions: Flood
Description: as §2

[21] = Preemergence, 500 g ai/ha, 0 no effect, 100 complete control
[22] = preemergence, 125 g ai/ha, visual injury, approx. 10 days
[23] = 125 g ai/ha, 0 to 100 scale, 0 no effect, 100 complete control
[24] = 500 g ai/ha, visual rating after approx. 10 days, 0 to 100 scale (0 no effect, 100 complete control)
[25] = Postemergence, 500 g ai/ha, visual rating after approx. 10 days, 0 to 100 scale (0 no effect, 100 complete control)
[26] = postemergence, 125 g ai/ha, about 10 days, visual rating on 0 to 100 scale (0 no effect, 100 complete control)
[27] = 31 g ai/ha, scale 0 to 100 (0 no effect, 100 complete control)
[28] = 62 g ai/ha, scale 0 to 100 (0 no effect, 100 complete control)

CNC(=O)c1cc(C)n(Cc2cccc(OC(F)(F)F)c2)n1 [Compound 3]
Barnyardgrass plant response rating [1, 21]: 0
Barnyardgrass plant response rating [1, 22]: 0
Crabgrass, Large plant response rating [2, 21]: 30
Crabgrass, Large plant response rating [2, 22]: 0
Foxtail, Giant plant response rating [3, 21]: 20
Foxtail, Giant plant response rating [3, 22]: 0
Morningglory plant response rating [4, 21]: 0
Morningglory plant response rating [4, 22]: 0
Pigweed plant response rating [5, 21]: 100
Pigweed plant response rating [5, 22]: 0
Velvetleaf plant response rating [6, 21]: 0
Velvetleaf plant response rating [6, 22]: 0
Wheat plant response rating [7]: 0
Corn plant response rating [8, 21]: 0
Corn plant response rating [8, 22]: 0
Barnyardgrass plant response rating [9, 23]: 0
Barnyardgrass plant response rating [9, 24]: 0
Crabgrass, Large plant response rating [10, 25]: 10
Crabgrass, Large plant response rating [10, 26]: 0
Foxtail, Giant plant response rating [11, 25]: 0
Foxtail, Giant plant response rating [11, 26]: 0
Morningglory plant response rating [12, 25]: 20
Morningglory plant response rating [12, 26]: 10
Pigweed plant response rating [13, 25]: 70
Pigweed plant response rating [13, 26]: 20
Velvetleaf plant response rating [14, 25]: 20
Velvetleaf plant response rating [14, 26]: 0
Wheat plant response rating [15, 25]: 0
Wheat plant response rating [15, 26]: 0
Corn plant response rating [16, 25]: 10
Corn plant response rating [16, 26]: 0
Plant response rating, Rice [17, 27]: 0
Plant response rating, Rice [17, 28]: 0
Plant response rating, Rice ([17]; 125 g ai/ha, scale 0 to 100): 0
Plant response rating, Rice ([17]; 250 g ai/ha, scale 0 to 100): 0
Plant response rating, Sedge, Umbrella [18, 27]: 0
Plant response rating, Sedge, Umbrella [18, 28]: 0
Plant response rating, Sedge, Umbrella ([18]; 125 g ai/ha, scale 0 to 100): 0
Plant response rating, Sedge, Umbrella ([18]; 250 g ai/ha, scale 0 to 100): 0
Plant response rating, Ducksalad [19, 27]: 40
Plant response rating, Ducksalad [19, 28]: 50
Plant response rating, Ducksalad ([19]; 125 g ai/ha, scale 0 to 100): 50
Plant response rating, Ducksalad ([19]; 250 g ai/ha, scale 0 to 100): 60
Plant response rating, Barnyardgrass [20, 27]: 0
Plant response rating, Barnyardgrass [20, 28]: 0
Plant response rating, Barnyardgrass ([20]; 125 g ai/ha, scale 0 to 100): 0
Plant response rating, Barnyardgrass ([20]; 250 g ai/ha, scale 0 to 100): 0

CCNC(=O)c1cc(C)n(Cc2cccc(OC(F)(F)F)c2)n1 [Compound 4]
Barnyardgrass plant response rating [1, 21]: 50
Barnyardgrass plant response rating [1, 22]: 0
Crabgrass, Large plant response rating [2, 21]: 90
Crabgrass, Large plant response rating [2, 22]: 40
Foxtail, Giant plant response rating [3, 21]: 60
Foxtail, Giant plant response rating [3, 22]: 0
Morningglory plant response rating [4, 21]: 20
Morningglory plant response rating [4, 22]: 0
Pigweed plant response rating [5, 21]: 100
Pigweed plant response rating [5, 22]: 50
Velvetleaf plant response rating [6, 21]: 10
Velvetleaf plant response rating [6, 22]: 0
Wheat plant response rating [7]: 0
Corn plant response rating [8, 21]: 0
Corn plant response rating [8, 22]: 0
Barnyardgrass plant response rating [9, 23]: 10
Barnyardgrass plant response rating [9, 24]: 40
Crabgrass, Large plant response rating [10, 25]: 50
Crabgrass, Large plant response rating [10, 26]: 20
Foxtail, Giant plant response rating [11, 25]: 30
Foxtail, Giant plant response rating [11, 26]: 10
Morningglory plant response rating [12, 25]: 90
Morningglory plant response rating [12, 26]: 30
Pigweed plant response rating [13, 25]: 80
Pigweed plant response rating [13, 26]: 70
Velvetleaf plant response rating [14, 25]: 30
Velvetleaf plant response rating [14, 26]: 10
Wheat plant response rating [15, 25]: 0
Wheat plant response rating [15, 26]: 0
Corn plant response rating [16, 25]: 40
Corn plant response rating [16, 26]: 10
Plant response rating, Rice [17, 27]: 0
Plant response rating, Rice [17, 28]: 0
Plant response rating, Rice ([17]; 125 g ai/ha, scale 0 to 100): 0
Plant response rating, Rice ([17]; 250 g ai/ha, scale 0 to 100): 0
Plant response rating, Sedge, Umbrella [18, 27]: 0
Plant response rating, Sedge, Umbrella [18, 28]: 0
Plant response rating, Sedge, Umbrella ([18]; 125 g ai/ha, scale 0 to 100): 0
Plant response rating, Sedge, Umbrella ([18]; 250 g ai/ha, scale 0 to 100): 60
Plant response rating, Ducksalad [19, 27]: 0
Plant response rating, Ducksalad [19, 28]: 40
Plant response rating, Ducksalad ([19]; 125 g ai/ha, scale 0 to 100): 50
Plant response rating, Ducksalad ([19]; 250 g ai/ha, scale 0 to 100): 60
Plant response rating, Barnyardgrass [20, 27]: 0
Plant response rating, Barnyardgrass [20, 28]: 0
Plant response rating, Barnyardgrass ([20]; 125 g ai/ha, scale 0 to 100): 0
Plant response rating, Barnyardgrass ([20]; 250 g ai/ha, scale 0 to 100): 0
